Measured values taken from ChEMBL document CHEMBL2321748, “Structure-Based Approach for the Discovery of Pyrrolo[3,2-d]pyrimidine-Based EGFR T790M/L858R Mutant Inhibitors” (ACS Med Chem Lett, 2013).
Active and inactive are the calls of the source. The rule behind the calls is not given here.

Columns and labels:
[1] = test system: Epidermal growth factor receptor (Homo sapiens), P00533 [L858R,T790M]; test: Time dependent inhibition of human EGFR T790M/L858R mutant expressed in Sf9 cells using [gamma32P]-ATP up to 1 hr by scintillation counting
[2] = molecular target: Epidermal growth factor receptor (Homo sapiens, UniProt P00533); test: Inhibition of human wild type EGFR expressed in Sf9 cells using [gamma32P]-ATP after 10 mins by scintillation counting
Chain of Epidermal growth factor receptor (P00533 whole entry): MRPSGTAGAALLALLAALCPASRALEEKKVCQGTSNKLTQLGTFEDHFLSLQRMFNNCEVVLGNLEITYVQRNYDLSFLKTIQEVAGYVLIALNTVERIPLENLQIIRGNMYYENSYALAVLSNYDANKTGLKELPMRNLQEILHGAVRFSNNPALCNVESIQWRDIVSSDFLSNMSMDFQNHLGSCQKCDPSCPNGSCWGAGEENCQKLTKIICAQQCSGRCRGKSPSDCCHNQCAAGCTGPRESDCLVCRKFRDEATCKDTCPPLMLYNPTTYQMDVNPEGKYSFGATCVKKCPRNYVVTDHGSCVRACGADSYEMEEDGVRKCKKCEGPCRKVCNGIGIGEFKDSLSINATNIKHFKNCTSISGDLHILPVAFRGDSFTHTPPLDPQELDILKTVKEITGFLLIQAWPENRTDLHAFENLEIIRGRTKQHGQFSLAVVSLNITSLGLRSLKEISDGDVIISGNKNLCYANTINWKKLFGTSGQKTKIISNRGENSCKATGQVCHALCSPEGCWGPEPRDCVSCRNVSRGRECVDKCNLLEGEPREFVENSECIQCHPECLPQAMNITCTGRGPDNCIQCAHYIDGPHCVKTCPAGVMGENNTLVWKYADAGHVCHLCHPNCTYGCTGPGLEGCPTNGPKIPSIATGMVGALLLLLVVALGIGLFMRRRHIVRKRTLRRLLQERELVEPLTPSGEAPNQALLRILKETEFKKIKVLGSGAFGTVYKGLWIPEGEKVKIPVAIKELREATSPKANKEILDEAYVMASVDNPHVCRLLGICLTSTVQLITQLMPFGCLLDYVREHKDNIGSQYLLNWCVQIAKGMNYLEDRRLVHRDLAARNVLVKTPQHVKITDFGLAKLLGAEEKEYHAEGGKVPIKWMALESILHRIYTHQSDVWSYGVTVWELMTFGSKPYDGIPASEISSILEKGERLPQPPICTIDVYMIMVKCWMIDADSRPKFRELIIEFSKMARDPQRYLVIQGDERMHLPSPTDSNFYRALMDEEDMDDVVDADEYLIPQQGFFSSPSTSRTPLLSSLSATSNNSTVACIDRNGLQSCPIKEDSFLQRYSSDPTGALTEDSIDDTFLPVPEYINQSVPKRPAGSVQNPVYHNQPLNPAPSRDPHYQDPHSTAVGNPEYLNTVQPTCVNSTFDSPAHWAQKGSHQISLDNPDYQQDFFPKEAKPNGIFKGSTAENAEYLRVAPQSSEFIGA

Chain of Epidermal growth factor receptor (Homo sapiens), P00533 [L858R,T790M] (P00533 whole entry T790M/L858R, looked up): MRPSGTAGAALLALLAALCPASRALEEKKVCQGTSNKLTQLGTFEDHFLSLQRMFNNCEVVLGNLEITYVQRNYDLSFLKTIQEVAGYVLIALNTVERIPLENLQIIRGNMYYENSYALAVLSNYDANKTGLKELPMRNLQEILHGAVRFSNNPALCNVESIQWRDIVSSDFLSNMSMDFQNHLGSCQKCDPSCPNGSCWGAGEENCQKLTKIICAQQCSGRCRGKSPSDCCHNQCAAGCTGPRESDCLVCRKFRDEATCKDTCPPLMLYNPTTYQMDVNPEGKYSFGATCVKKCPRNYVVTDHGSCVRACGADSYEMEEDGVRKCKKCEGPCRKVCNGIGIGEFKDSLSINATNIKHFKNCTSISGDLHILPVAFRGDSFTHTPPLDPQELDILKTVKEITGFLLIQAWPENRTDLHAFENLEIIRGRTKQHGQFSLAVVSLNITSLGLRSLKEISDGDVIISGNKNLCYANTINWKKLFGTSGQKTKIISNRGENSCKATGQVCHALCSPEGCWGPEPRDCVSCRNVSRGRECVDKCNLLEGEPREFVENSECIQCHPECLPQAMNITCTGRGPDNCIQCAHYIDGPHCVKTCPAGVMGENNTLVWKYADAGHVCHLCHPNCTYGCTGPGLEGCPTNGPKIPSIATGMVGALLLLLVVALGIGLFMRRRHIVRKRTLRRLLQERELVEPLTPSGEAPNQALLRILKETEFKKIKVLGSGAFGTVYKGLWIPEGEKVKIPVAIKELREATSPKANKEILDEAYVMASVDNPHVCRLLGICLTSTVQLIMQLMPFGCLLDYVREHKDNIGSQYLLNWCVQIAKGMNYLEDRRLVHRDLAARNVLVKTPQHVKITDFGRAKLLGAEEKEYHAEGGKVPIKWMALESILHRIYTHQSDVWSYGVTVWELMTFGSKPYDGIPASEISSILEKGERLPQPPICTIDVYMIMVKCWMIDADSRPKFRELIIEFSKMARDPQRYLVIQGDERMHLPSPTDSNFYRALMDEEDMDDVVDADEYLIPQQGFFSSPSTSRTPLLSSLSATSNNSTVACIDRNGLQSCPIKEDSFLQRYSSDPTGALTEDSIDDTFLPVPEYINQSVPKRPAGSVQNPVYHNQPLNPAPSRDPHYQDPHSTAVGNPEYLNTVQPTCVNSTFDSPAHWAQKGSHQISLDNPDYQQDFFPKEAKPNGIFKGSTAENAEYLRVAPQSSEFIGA

inhibition [1] | IC50 [2] | Compound
inactive | 4.6 nM | CN(C)C/C=C/C(=O)NCCn1ccc2ncnc(Nc3ccc(Oc4cccc(C(F)(F)F)c4)c(Cl)c3)c21
– | 6.9 nM | O=C(Nc1cccc(Oc2ccc(Nc3ncnc4ccn(CCOCCO)c34)cc2Cl)c1)NC1CCCCC1
